A short description of data set [1]: pH-dependent solubility of vardenafil hydrochloride trihydrate. It is filed as physicochemical. From the text:
This great pH-dependence represents a hindrance in particular to the development of pharmaceutical dosage forms with controlled release of active ingredient for oral use, because the medicinal form is exposed on passage through the gastrointestinal (GI) tract to media with pH values varying greatly from about pH 1 to pH 7.5. In order to achieve a sufficient bioavailability from a slow-release medicinal form, a substance must be absorbed if possible over the entire gastrointestinal tract. […] A slowing of the release of active ingredient usually leads in the case of substances subject to a very large first-pass effect to complete loss of the oral bioavailability, because the slow rise in level of the active ingredient means that the concentrations in the portal vein blood remain so low that the capacity of the metabolizing liver enzymes is sufficient for complete degradation.

The conditions of data set [2]: cited from earlier work.

Structures can show the parent of a compound that is named as a salt.

For orientation: solubility means the dissolved amount per volume that the medium holds. Lower therefore signals little dissolved substance. As for `CCCc1nc(C)c2c(=O)[nH]c(-c3cc(S(=O)(=O)N4CCN(CC)CC4)ccc3OCC)nn12` [vardenafil hydrochloride trihydrate], the solubility in data set [1] (aqueous buffer, in 0.15 M phosphate buffer of pH 4) was 870 µg/mL; in data set [1] (aqueous buffer, in 0.15 M phosphate buffer of pH 7) it was 30 µg/mL; in data set [1] (simulated gastric fluid, in 0.1 N hydrochloric acid) it was 65000 µg/mL.
As for `CCCc1nc(C)c2c(=O)[nH]c(-c3cc(S(=O)(=O)N4CCN(CC)CC4)ccc3OCC)nn12` [vardenafil, {2-ethoxy-5-[(4-ethyl-1-piperazinyl)sulphonyl]phenyl}-5-methyl-7-propylimidazo[5,1-f]triazin-4(3H)-one], in data set [2], the absolute oral bioavailability is on record as 15%.

The record behind these values is patent publication US20080187588A1, “Formulations With Controlled Release Of Active Ingredient” (Bayer HealthCare AG, priority 2004, published 2008).
